The source of these data is patent publication US20150232420A1, “TRANSGLUTAMINASE TG2 INHIBITORS, PHARMACEUTICAL COMPOSITIONS, AND METHODS OF USE THEREOF” (priority 2012, published 2015).

This experiment addresses T1, human TG2 (Homo sapiens, UniProt P21980).
T1 sequence (P21980 1-687): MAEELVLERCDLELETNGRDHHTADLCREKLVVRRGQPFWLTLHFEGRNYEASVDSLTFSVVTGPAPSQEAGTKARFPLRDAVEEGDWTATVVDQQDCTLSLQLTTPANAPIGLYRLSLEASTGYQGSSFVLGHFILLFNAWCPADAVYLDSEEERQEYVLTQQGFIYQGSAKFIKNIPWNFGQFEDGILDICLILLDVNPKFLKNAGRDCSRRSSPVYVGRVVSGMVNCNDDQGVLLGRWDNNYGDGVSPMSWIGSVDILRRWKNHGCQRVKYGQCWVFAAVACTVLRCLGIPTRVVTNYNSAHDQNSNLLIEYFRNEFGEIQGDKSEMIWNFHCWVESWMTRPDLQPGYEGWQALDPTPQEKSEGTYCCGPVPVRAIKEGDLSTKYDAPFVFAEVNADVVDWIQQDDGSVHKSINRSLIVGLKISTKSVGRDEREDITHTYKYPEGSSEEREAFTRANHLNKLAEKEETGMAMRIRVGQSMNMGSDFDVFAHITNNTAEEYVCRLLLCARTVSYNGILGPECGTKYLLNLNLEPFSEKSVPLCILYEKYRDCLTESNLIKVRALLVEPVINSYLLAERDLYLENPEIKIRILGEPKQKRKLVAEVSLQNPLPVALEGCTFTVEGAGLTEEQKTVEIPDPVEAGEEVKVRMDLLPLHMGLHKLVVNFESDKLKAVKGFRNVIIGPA
The experiment can be described thus: fluorescent screening assay for human TG2. The experiment is classed as biochemical. As to conditions: Table 7; 20 nM TG2, 37° C.; read-out: IC50. The method, then: The fluorescent screening assay for human TG2 was performed as described herein: Assay conditions were 20 nM TG2, 8 μM N,N-dimethylated Casein (NMC) and 16 μM K×D (used for all transglutaminase assays) in 25 mM Hepes, pH 7.4, 250 mM NaCl, 2 mM MgCl2, 0.5 mM CaCl2, 0.2 mM DTT, 0.05% Pluronic F-127 at 37° C. A time point was taken with a microplate reader (Safire or Ultra, Tecan; ex: 350 nm, em: 535 nm) every 3 minutes for up to 2 hours and the initial linear reaction progress was used to determine the reaction velocity as a measure for enzyme activity. Assay conditions were identical for human TG6 and similar for human TG1 and mouse TG2 apart from enzyme concentration (mTG2 at 5 nM; TG1 at 10 nM) and CaCl2 concentration (0.2 mM for mTG2; 0.05 mM for TG1). Factor XIIIa was activated using 0.1 μg/μl thrombin (Sigma) in 35 mM Tris pH 8.0 for 20 min at 30° C. and the transamidation reaction was performed with 20 nM Factor XIIIa in 50 mM Tris pH 8.0, 1.25 mM CaCl2, 0.05% Pluronic, 0.2 mM DTT. TG3 was activated with 0.02 μg/μl thrombin under the same conditions as Factor XIIIa and assay conditions were 10 nM TG3 in 50 mM Hepes, pH 8, 20 mM CaCl2, 0.2 mM DTT, 0.05% Pluronic F-127.
With `C=CC(=O)NCCCC[C@H](NC(=O)OCc1ccccc1)C(=O)N1CCN(c2ccc(C(F)(F)F)cn2)CC1` [benzyl N-[(2S)-1-oxo-6-(prop-2-enamido)-1-{4-[5-(trifluoromethyl)pyridin-2-yl]piperazin-1-yl}hexan-2-yl]carbamate], the IC50 lay in the range of 100 to 1000 nM.
To `C=CC(=O)NCCCC[C@H](NC(=O)OCc1ccccc1)C(=O)N1CCN(c2ncccc2C)CC1` [benzyl N-[(2S)-1-[4-(3-methylpyridin-2-yl)piperazin-1-yl]-1-oxo-6-(prop-2-enamido)hexan-2-yl]carbamate] belongs 100 to 1000 nM.
To `C=CC(=O)NCCC1C[C@@H](C(=O)OC)N(C(=O)OC(C)(C)C)C1` (stereo partly drawn) [1-tert-butyl 2-methyl (2S)-4-[2-(prop-2-enamido)ethyl]pyrrolidine-1,2-dicarboxylate] belongs 1000 to 100000 nM; to `C=CC(=O)NCCCC[C@H](NC(=O)c1ccccc1)C(=O)N1CCN(c2cccc(C)n2)CC1` [N-[(5S)-6-[4-(6-methylpyridin-2-yl)piperazin-1-yl]-6-oxo-5-(phenylformamido)hexyl]prop-2-enamide], 100 to 1000 nM.
For the compound `C=CC(=O)NCCCC[C@H](NC(=O)OCc1ccccc1)C(=O)N(CC)CC` [benzyl N-[(1S)-1-(diethylcarbamoyl)-5-(prop-2-enamido)pentyl]carbamate], the IC50 fell in the range of 1000 to 100000 nM.
The same measure for `C=CC(=O)NCCCC[C@H](NC(=O)OCc1ccccc1)C(=O)N1CCN(C(=O)C23CC4CC(CC(C4)C2)C3)CC1` [benzyl N-[(2S)-1-[4-(adamantane-1-carbonyl)piperazin-1-yl]-1-oxo-6-(prop-2-enamido)hexan-2-yl]carbamate]: less than 100 nM; for `C=CC(=O)NCCCC[C@H](NC(=O)OCc1ccccc1)C(=O)N1CCN(c2ccc3ccccc3c2)CC1` [benzyl N-[(2S)-1-[4-(naphthalen-2-yl)piperazin-1-yl]-1-oxo-6-(prop-2-enamido)hexan-2-yl]carbamate]: 100 to 1000 nM.
Consider `C=CC(=O)NCCCC[C@H](NC(=O)OCc1ccccc1)C(=O)N1CCN(C(=O)OC(C)(C)C)CC1` [tert-butyl 4-[(2S)-2-{[(benzyloxy)carbonyl]amino}-6-(prop-2-enamido)hexanoyl]piperazine-1-carboxylate], for which the IC50 is 100 to 1000 nM.
To `C=CC(=O)NCCCC[C@H](NC(=O)OCc1ccccc1)C(=O)N1CCN(C(=O)N2CCOCC2)CC1` [benzyl N-[(2S)-1-[4-(morpholine-4-carbonyl)piperazin-1-yl]-1-oxo-6-(prop-2-enamido)hexan-2-yl]carbamate] belongs 100 to 1000 nM; to `C=CC(=O)NCCCC[C@H](NC(=O)OCC1c2ccccc2-c2ccccc21)C(=O)O` [(2S)-2-{[(9H-fluoren-9-ylmethoxy)carbonyl]amino}-6-(prop-2-enamido)hexanoic acid], 1000 to 100000 nM.
Consider `C=CC(=O)NCCCC[C@H](NC(=O)OCc1ccc([N+](=O)[O-])cc1)C(=O)O` [(2S)-2-({[(4-nitrophenyl)methoxy]carbonyl}amino)-6-(prop-2-enamido)hexanoic acid], for which the IC50 was 1000 to 100000 nM.
To `C=CC(=O)NCCCC[C@@H](CO)NC(=O)OCc1ccccc1` [benzyl N-[(2S)-1-hydroxy-6-(prop-2-enamido)hexan-2-yl]carbamate] belongs 1000 to 100000 nM.
The same measure for `C=CC(=O)NCCCC[C@H](NC(=O)OCc1ccc2ccccc2c1)C(=O)O` [(2S)-2-{[(naphthalen-2-ylmethoxy)carbonyl]amino}-6-(prop-2-enamido)hexanoic acid]: 1000 to 100000 nM; for `C=CC(=O)NCCCC[C@H](NC(=O)OCc1ccccc1)C(=O)N1CCN(c2cc(Cl)ccc2OC)CC1` [benzyl N-[(2S)-1-[4-(5-chloro-2-methoxyphenyl)piperazin-1-yl]-1-oxo-6-(prop-2-enamido)hexan-2-yl]carbamate]: less than 100 nM; for `C=CC(=O)NCCCC[C@H](NC(=O)OCc1ccccc1)C(=O)N1CCC1` [benzyl N-[(2S)-1-(azetidin-1-yl)-1-oxo-6-(prop-2-enamido)hexan-2-yl]carbamate]: 1000 to 100000 nM.
The same measure for `C=CC(=O)NCCCC[C@H](NC(=O)OC(C)(C)C)C(=O)N1CCN(c2cccc(C)n2)CC1` [tert-butyl N-[(2S)-1-[4-(6-methylpyridin-2-yl)piperazin-1-yl]-1-oxo-6-(prop-2-enamido)hexan-2-yl]carbamate]: 100 to 1000 nM.
For `C=CC(=O)NCCCC[C@H](NC(=O)OCc1ccc(C(F)(F)F)cc1)C(=O)O` [(2S)-6-(prop-2-enamido)-2-[({[4-(trifluoromethyl)phenyl]methoxy}carbonyl)amino]hexanoic acid], the IC50 fell in the range of 1000 to 100000 nM.
With `C=CC(=O)NCCCC[C@H](NC(=O)OCc1ccc(F)cc1Cl)C(=O)O` [(2S)-2-({[(2-chloro-4-fluorophenyl)methoxy]carbonyl}amino)-6-(prop-2-enamido)hexanoic acid], the IC50 is 1000 to 100000 nM.
The same measure for `C=CC(=O)NCCCC[C@H](NC(=O)OCc1ccccc1)C(=O)N1CCN(c2cccc(C)n2)CC1` [benzyl N-[(2S)-1-[4-(6-methylpyridin-2-yl)piperazin-1-yl]-1-oxo-6-(prop-2-enamido)hexan-2-yl]carbamate]: less than 100 nM; for `C=CC(=O)Nc1ccc(C[C@H](NC(=O)OCc2ccccc2)C(=O)O)cc1` [(2S)-2-{[(benzyloxy)carbonyl]amino}-3-[4-(prop-2-enamido)phenyl]propanoic acid]: 1000 to 100000 nM; for `C=CC(=O)NCCCC[C@H](NC(=O)c1ccc2ccccc2c1)C(=O)N1CCN(c2cccc(C)n2)CC1` [N-[(5S)-6-[4-(6-methylpyridin-2-yl)piperazin-1-yl]-5-(naphthalen-2-ylformamido)-6-oxohexyl]prop-2-enamide]: 1000 to 100000 nM.
The same measure for `C=CC(=O)NCCCC[C@H](NC(=O)OCc1ccccc1)C(=O)N(C)C` [benzyl N-[(1S)-1-(dimethylcarbamoyl)-5-(prop-2-enamido)pentyl]carbamate]: 1000 to 100000 nM; for `C=CC(=O)NCCCC[C@H](NC(=O)OCc1c(F)cccc1F)C(=O)O` [(2S)-2-({[(2,6-difluorophenyl)methoxy]carbonyl}amino)-6-(prop-2-enamido)hexanoic acid]: 1000 to 100000 nM; for `C=CC(=O)NCCCC[C@H](NC(=O)OCc1ccccc1)C(=O)N1CCN(C(=O)C2CC2)CC1` [benzyl N-[(2S)-1-(4-cyclopropanecarbonylpiperazin-1-yl)-1-oxo-6-(prop-2-enamido)hexan-2-yl]carbamate]: 100 to 1000 nM.
`C=CC(=O)NCCCC[C@H](NC(=O)OCc1ccccc1)C(=O)N1CCN(c2ccccn2)CC1` [benzyl N-[(2S)-1-oxo-6-(prop-2-enamido)-1-[4-(pyridin-2-yl)piperazin-1-yl]hexan-2-yl]carbamate]: the IC50 was 100 to 1000 nM.
As for `C=CC(=O)NCCCC[C@H](NC(=O)OCc1ccccc1)C(=O)N1CCN(C)CC1` [benzyl N-[(2S)-1-(4-methylpiperazin-1-yl)-1-oxo-6-(prop-2-enamido)hexan-2-yl]carbamate], the half-inhibitory concentration (IC50) fell in the range of 100 to 1000 nM.
The same measure for `C=CC(=O)NCCCC[C@H](NC(=O)OCc1ccccc1)C(=O)NC1C2CC3CC(C2)CC1C3` (stereo partly drawn) [benzyl N-[(1S)-1-[(adamantan-2-yl)carbamoyl]-5-(prop-2-enamido)pentyl]carbamate]: 1000 to 100000 nM.
The same measure for `C=CC(=O)NCCCC[C@H](NC(=O)OCc1ccccc1)C(=O)N1CCCCC1` [benzyl N-[(2S)-1-oxo-1-(piperidin-1-yl)-6-(prop-2-enamido)hexan-2-yl]carbamate]: 1000 to 100000 nM; for `C=CC(=O)NCCCC[C@H](NC(=O)OCc1ccccc1)C(=O)N1CCC(c2ccccc2)CC1` [benzyl N-[(2S)-1-oxo-1-(4-phenylpiperidin-1-yl)-6-(prop-2-enamido)hexan-2-yl]carbamate]: less than 100 nM; for `C=CC(=O)NCCCC[C@H](NC(=O)OCc1ccccc1)C(=O)N1Cc2ccccc2C1` [benzyl N-[(2S)-1-(2,3-dihydro-1H-isoindol-2-yl)-1-oxo-6-(prop-2-enamido)hexan-2-yl]carbamate]: 100 to 1000 nM.
Regarding `C=CC(=O)NCCCC[C@H](NC(=O)OCc1ccccc1)C(=O)N1CCCCCC1` [benzyl N-[(2S)-1-(azepan-1-yl)-1-oxo-6-(prop-2-enamido)hexan-2-yl]carbamate], the concentration for half-maximal inhibition (IC50) lay within 100 to 1000 nM.
